Key:
[1] = API particle size distribution (Dv(10), Dv(50), Dv(90), Span); format: physicochemical; settings: 5% (w/w) in water, 15% Tween 80, 90 bar
Source text: In determining and characterizing particle size, e.g., particle size of an API (active pharmaceutical ingredient), the particle size parameters Dv(10), Dv(50) and Dv(90) may be used. Particle size measurements are preferably expressed in terms of Dv(10), Dv(50), and Dv(90), wherein Dv(10) refers to the particle size below which 10% of the volume of material exists; Dv(50) refers to the particle size below which 50% of the volume of material exists; and Dv(90) refers to the particle size below which 90% of the volume of material exists.
Referring to Table 5, experiments were performed with a suspension comprising the active pharmaceutical ingredient (the API), i.e., 17-HPC was the API in these experiments, wherein 17-HPC was present at approximately five percent (5%) w/w in water; and the suspension also comprised the surfactant Tween 80 at approximately 15% in these experiments (processing conditions conducted at Pressure=90 bar). […] Particle size measurements are expressed in terms of Dv(10), Dv(50), and Dv(90), wherein Dv(10) refers to the particle size below which 10% of the volume of material exists; Dv(50) refers to the particle size below which 50% of the volume of material exists; and Dv(90) refers to the particle size below which 90% of the volume of material exists). […]
Exemplary particle size reduction experiments, and characterization of API (i.e., 17-HPC) particle size distribution, using a suspension prepared without a surfactant. Referring to Table 7, particle size reduction of 17-HPC was observed without using any surfactant. Experiments were performed with a suspension comprising the active pharmaceutical ingredient (the API), i.e., 17-HPC in these experiments, in water and without a surfactant. FIG. 16 depicts an exemplary API particle size distribution profile (17-HPC is the active ingredient) after a spray-drying (SD) process. Referring again to FIG. 16, and also to Table 7, an exemplary 17-HPC particle size distribution profile was obtained after approximately 10 to 55 cycles of milling. API particle size was measured after spray drying (SD). Particle size measurements are expressed in terms of Dv(10), Dv(50), and Dv(90), wherein Dv(10) refers to the particle size below which 10% of the volume of material exists; Dv(50) refers to the particle size below which 50% of the volume of material exists; and Dv(90) refers to the particle size below which 90% of the volume of material exists).

[2] = system: PHA-induced IL-2 production in PBMCs; test: PHA-induced IL-2 production in PBMCs from healthy male smokers (no IL-2/IL-4 added), ELISA; format: cell-based, human; parameters: PR2005 IC50: unit not given here; settings: for mean IL-2: Table 1; for % inhibition of PHA stimulation of IL-2: Table 2
Experimental: PBMCs were isolated from human blood buffy coats provided by a regional blood center. Random buffy coat cells from male donors were a by-product of blood processed for clinical use and no details (i.e., personal identification and background) were provided except for tobacco use. […] PBMCs were separated using a porous high density polyethylene barrier (HISTOPAQUE from GEHealthcare Bio-Sciences AB (US). After centrifugation of blood samples in each tube (35 minutes at 800×g at room temperature, or RT), PBMCs were collected and washed twice with Hank's buffered saline solution (HBSS). PBMCs were resuspended in RPMI-1640 medium containing 10% fetal calf serum (FCS) and 15 mM glutamine and cells were counted and plated.
PBMCs (2×10^6) were incubated with or without IL-2 (13 ng/ml) and IL-4 (6.5 ng/ml) for 48 hours in RPMI-1640 medium containing 10% FCS and 2 mM glutamine. […] IL-2 and IL-4 stimulated PBMCs were also plated at a concentration of 10^6 cells/ml in 96-well plates ready for PHA (15 μg/mL, 24 hours) stimulation of cytokine release and detection by ELISA.
Serial dilutions of standards and PBMCs' supernatants were measured by enzyme linked immunosorbent assay to determine IL-2 at baseline and its levels after 17HPC, P4 and MAP treatments. Optical density was measured at 450 nm and corrected with 550 nm. The concentration of TL-2 was calculated using the standard curve and taking into account the supernatant dilution used. Detection limit for IL-2 is 4.0 pg/ml.
Data are expressed as mean±SD. The efficacies of the drug treatments were analyzed by paired t-test. One-way analysis of variance was used to compare three or more matched groups and 95% CI was performed to present groups differences. All graphs indicate mean values of results or % inhibition of PHA-stimulated IL-2. IC50 values were calculated by using a sigmoidal model (BioDataFit). A p value <0.05 was considered statistically significant.
(§1) IL-2 levels were quantified using ELISA.
IL-2 levels were quantified using ELISA. IC50 values were calculated by using a sigmoidal model (BioDataFit).
as §1, §1, §1

CCCCCC(=O)O[C@]1(C(C)=O)CC[C@H]2[C@@H]3CCC4=CC(=O)CC[C@]4(C)[C@H]3CC[C@@]21C [17HPC, 17α-HYDROXYPROGESTERONE CAPROATE]
Particle Size Dv(10) ([1]; after 8 cycles): 1.015 μm
Particle Size Dv(50) ([1]; after 8 cycles): 3.021 μm
Particle Size Dv(90) ([1]; after 8 cycles): 7.302 μm
Particle Size Span ([1]; after 8 cycles): 2.081
Particle Size Dv(10) ([1]; after 16 cycles): 1.071 μm
Particle Size Dv(50) ([1]; after 16 cycles): 2.574 μm
Particle Size Dv(90) ([1]; after 16 cycles): 5.347 μm
Particle Size Span ([1]; after 16 cycles): 1.662
Particle Size Dv(10) ([1]; after 25 cycles): 1.014 μm
Particle Size Dv(50) ([1]; after 25 cycles): 2.255 μm
Particle Size Dv(90) ([1]; after 25 cycles): 4.517 μm
Particle Size Span ([1]; after 25 cycles): 1.553
PR2005 IC50 ([2]; Dexamethasone 0): 6.434
suppression of PHA induced IL-2 ([2]; FIG. 11, 17HPC add-on to Dexamethasone 10^−6 M): ~100%
improvements in Dexamethasone efficacy (synergetic effect of combination) ([2]; FIG. 12, 17HPC with Dexamethasone): 25-37%
mean IL-2 ([2]; 17HPC 10^−5M + Dexamethasone 10^−6M): 24.61 pg/mL
mean IL-2 ([2]; 17HPC 10^−5M + Dexamethasone 10^−8M): 136.2 pg/mL
mean IL-2 ([2]; 17HPC 10^−5M + Dexamethasone 10^−10M): 138.6 pg/mL
mean IL-2 ([2]; 17HPC 10^−5M + Dexamethasone 10^−12M): 176.2 pg/mL
mean IL-2 ([2]; 17HPC 10^−5M, Dexamethasone 0): 225.6 pg/mL
mean IL-2 ([2]; 17HPC 10^−7M + Dexamethasone 10^−6M): 9.914 pg/mL
mean IL-2 ([2]; 17HPC 10^−7M + Dexamethasone 10^−8M): 229.3 pg/mL
mean IL-2 ([2]; 17HPC 10^−7M + Dexamethasone 10^−10M): 104.5 pg/mL
mean IL-2 ([2]; 17HPC 10^−7M + Dexamethasone 10^−12M): 111.6 pg/mL
mean IL-2 ([2]; 17HPC 10^−7M, Dexamethasone 0): 466.3 pg/mL
mean IL-2 ([2]; 17HPC 10^−10M + Dexamethasone 10^−6M): 27.18 pg/mL
mean IL-2 ([2]; 17HPC 10^−10M + Dexamethasone 10^−8M): 173.5 pg/mL
mean IL-2 ([2]; 17HPC 10^−10M + Dexamethasone 10^−10M): 177.7 pg/mL
mean IL-2 ([2]; 17HPC 10^−10M + Dexamethasone 10^−12M): 132.3 pg/mL
mean IL-2 ([2]; 17HPC 10^−10M, Dexamethasone 0): 420.6 pg/mL
mean IL-2 ([2]; 17HPC 10^−11M + Dexamethasone 10^−6M): 9.05 pg/mL
mean IL-2 ([2]; 17HPC 10^−11M + Dexamethasone 10^−8M): 167.9 pg/mL
mean IL-2 ([2]; 17HPC 10^−11M + Dexamethasone 10^−10M): 164.4 pg/mL
mean IL-2 ([2]; 17HPC 10^−11M + Dexamethasone 10^−12M): 275.2 pg/mL
mean IL-2 ([2]; 17HPC 10^−11M, Dexamethasone 0): 448.2 pg/mL
% inhibition of PHA stimulation of IL-2 ([2]; 17HPC 10^−5 M + Dexamethasone 10^−6 M): 97%
% inhibition of PHA stimulation of IL-2 ([2]; 17HPC 10^−5 M + Dexamethasone 10^−8 M): 81%
% inhibition of PHA stimulation of IL-2 ([2]; 17HPC 10^−5 M + Dexamethasone 10^−10 M): 81%
% inhibition of PHA stimulation of IL-2 ([2]; 17HPC 10^−5 M + Dexamethasone 10^−12 M): 76%
% inhibition of PHA stimulation of IL-2 ([2]; 17HPC 10^−5 M, Dexamethasone 0 M): 69%
% inhibition of PHA stimulation of IL-2 ([2]; 17HPC 10^−7 M + Dexamethasone 10^−6 M): 99%
% inhibition of PHA stimulation of IL-2 ([2]; 17HPC 10^−7 M + Dexamethasone 10^−8 M): 69%
% inhibition of PHA stimulation of IL-2 ([2]; 17HPC 10^−7 M + Dexamethasone 10^−10 M): 86%
% inhibition of PHA stimulation of IL-2 ([2]; 17HPC 10^−7 M + Dexamethasone 10^−12 M): 85%
% inhibition of PHA stimulation of IL-2 ([2]; 17HPC 10^−7 M, Dexamethasone 0 M): 37%
% inhibition of PHA stimulation of IL-2 ([2]; 17HPC 10^−10 M + Dexamethasone 10^−6 M): 96%
% inhibition of PHA stimulation of IL-2 ([2]; 17HPC 10^−10 M + Dexamethasone 10^−8 M): 76%
% inhibition of PHA stimulation of IL-2 ([2]; 17HPC 10^−10 M + Dexamethasone 10^−10 M): 76%
% inhibition of PHA stimulation of IL-2 ([2]; 17HPC 10^−10 M + Dexamethasone 10^−12 M): 82%
% inhibition of PHA stimulation of IL-2 ([2]; 17HPC 10^−10 M, Dexamethasone 0 M): 43%
% inhibition of PHA stimulation of IL-2 ([2]; 17HPC 10^−11 M + Dexamethasone 10^−6 M): 99%
% inhibition of PHA stimulation of IL-2 ([2]; 17HPC 10^−11 M + Dexamethasone 10^−8 M): 77%
% inhibition of PHA stimulation of IL-2 ([2]; 17HPC 10^−11 M + Dexamethasone 10^−10 M): 78%
% inhibition of PHA stimulation of IL-2 ([2]; 17HPC 10^−11 M + Dexamethasone 10^−12 M): 63%
% inhibition of PHA stimulation of IL-2 ([2]; 17HPC 10^−11 M, Dexamethasone 0 M): 39%
IL-2 inhibition ([2]; add-on of low doses of 17HPC (10^−11 M or 10^−10 M) to lower Dexamethasone doses): ≥ 78%
effect in basal IL-2 level ([2]; no PHA stimulation, data not shown): no significant effect
PR2005 IC50 ([2]; with Dexamethasone 10^−8M): 6.243
PR2005 IC50 ([2]; with Dexamethasone 10^−10M): 11.64
PR2005 IC50 ([2]; with Dexamethasone 10^−12M): 10.92

— patent US20110262502A1, “PULMONARY DELIVERY OF 17-HYDROXYPROGESTERONE CAPROATE (17-HPC)” (Prairie Pharmaceuticals LLC, priority 2010, published 2011)
